We go through 19 compounds from PubChem BioAssay (NCI).

Values joined by “and” are separate entries in the source; they are usually repeats but may differ in a detail not shown here. Equal values may be shown once.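 Dose response: 5 concentrations. Exposure: 48 h. Format: 96-well plates. Endpoint: linear interpolation; highest concentration if not reached. Here, GI50 denotes the concentration required for 50% inhibition of growth. TGI marks complete inhibition of growth.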

Test systems include EKVX NSCLC; HOP-92 NSCLC; CAKI-1 renal; UO-31 renal; PC-3 prostate; NCI-H522 lung; MALME-3M melanoma; IGROV1 ovarian; MDA-MB-231 breast; HS 578T breast.
Experiment in all cases: DTP human tumour cell line panel, 48 h

As a reminder, the GI50 is the concentration at which growth is held to half of that of the control. Usually TGI stands for the concentration at which net growth stops. Low values mean more potent growth arrest, high ones less potent growth arrest.

For the compound `Oc1ccc(-c2nnc3sc(-c4ccc(F)cc4)nn23)cc1`, the GI50 with EKVX NSCLC is 70.8 µM; in the experiment on HOP-92 NSCLC, 46.1 µM; in the experiment on CAKI-1 renal, 48.8 µM; in the experiment with UO-31 renal, more than 100 µM; with PC-3 prostate, more than 100 µM; in the experiment on NCI-H522 lung, 62 µM. Also, the GI50 was more than 100 µM in the experiment with MALME-3M melanoma, 55.8 µM in the experiment on IGROV1 ovarian, 10.6 µM in the experiment with MDA-MB-231 breast and 16.1 µM in the experiment on HS 578T breast. Moreover, the TGI with EKVX NSCLC, with HOP-92 NSCLC, in the experiment on CAKI-1 renal, in the experiment with UO-31 renal, in the experiment with PC-3 prostate and with NCI-H522 lung was more than 100 µM in each case. Moreover, the TGI was more than 100 µM in the experiment on MALME-3M melanoma, more than 100 µM with IGROV1 ovarian, 46.8 µM in the experiment on MDA-MB-231 breast and 40.2 µM in the experiment with HS 578T breast.
With `CC(=O)OC(C)c1cc2c(s1)C(=O)c1sccc1C2=O` (stereo not given), the total growth inhibition concentration (TGI) is 3.7 µM with EKVX NSCLC; 16.7 µM with HOP-92 NSCLC; 8.23 µM in the experiment on CAKI-1 renal; 3.28 µM with UO-31 renal; 14.2 µM in the experiment on PC-3 prostate; 3.34 µM in the experiment on NCI-H522 lung. In addition, the TGI in the experiment with MALME-3M melanoma amounted to 0.407 µM; in the experiment with IGROV1 ovarian it was 4.19 µM; with MDA-MB-231 breast it was 16.8 µM; in the experiment with HS 578T breast, 7.36 µM.
For the compound `O=C(Nc1cccc2cnccc12)c1cc2c(cc1Cl)Sc1nccn1S2(=O)=O`, the TGI in the experiment with EKVX NSCLC was 52.8 µM; in the experiment on HOP-92 NSCLC, 59.4 µM; with CAKI-1 renal, 91.5 µM; in the experiment with UO-31 renal, 55.6 µM; with PC-3 prostate it was more than 100 µM; with NCI-H522 lung it was 33.2 µM. The TGI worked out at 38.7 µM in the experiment on MALME-3M melanoma, 45.8 µM in the experiment with IGROV1 ovarian, 36.5 µM with MDA-MB-231 breast and 73.7 µM in the experiment with HS 578T breast.
For the compound `CCC1=CCC23C(=O)C=CC(=O)C2(C1)C(=O)c1cccc(OC)c1C3=O` (stereo not given), the TGI in the experiment on EKVX NSCLC was 32.9 µM; in the experiment with HOP-92 NSCLC it was 29 µM; in the experiment on CAKI-1 renal, 26.1 µM; with UO-31 renal, 22.7 µM; with PC-3 prostate it was 28.4 µM; in the experiment on NCI-H522 lung, more than 100 µM. The TGI in the experiment with MALME-3M melanoma stood at 30 µM; in the experiment with IGROV1 ovarian, 26.9 µM; in the experiment on MDA-MB-231 breast, 29.8 µM; in the experiment with HS 578T breast it was 57.3 µM.
Regarding `O=C1CCC(=Nc2ccc(Cl)cc2)N1C(=O)COc1ccc(OCC(=O)N2C(=O)CSC2=Nc2ccc(Cl)cc2)cc1`, the TGI in the experiment on EKVX NSCLC, with HOP-92 NSCLC, in the experiment with CAKI-1 renal, in the experiment on UO-31 renal, with PC-3 prostate and in the experiment on NCI-H522 lung was more than 100 µM in each case. Moreover, the TGI in the experiment on MALME-3M melanoma, in the experiment with IGROV1 ovarian, in the experiment on MDA-MB-231 breast and in the experiment with HS 578T breast was more than 100 µM throughout.
Regarding `CC1(C)O[C@@H]2COC(=O)[C@@H]2O1`, the TGI with EKVX NSCLC, in the experiment with HOP-92 NSCLC, with CAKI-1 renal, with UO-31 renal, in the experiment on PC-3 prostate and in the experiment on NCI-H522 lung was more than 100 µM each time. In addition, the TGI in the experiment with MALME-3M melanoma, with IGROV1 ovarian, with MDA-MB-231 breast and with HS 578T breast was more than 100 µM throughout.
Take `COc1cc2c(cc1OCCCCOc1cc(-c3ccc(F)cc3)nc(C)n1)N=C[C@@H]1CCCN1C2=O`: the TGI was determined as 5.18 µM in the experiment with EKVX NSCLC; 6.18 µM with HOP-92 NSCLC; 2.05 µM in the experiment on CAKI-1 renal; 12 µM in the experiment with UO-31 renal; 6.07 µM with PC-3 prostate; 2.28 µM in the experiment with NCI-H522 lung. For the same compound, the TGI in the experiment with MALME-3M melanoma was 1.82 µM; with IGROV1 ovarian it was 12.2 µM; in the experiment with MDA-MB-231 breast, 5.18 µM; in the experiment on HS 578T breast, 2.79 µM.
`Cc1cc(C)c2c(=O)n(CN3CC4Nc5ccccc5C4C3)sc2n1` (stereo not given): the TGI with EKVX NSCLC is 88.5 µM; with HOP-92 NSCLC it was more than 100 µM; with CAKI-1 renal, 57.6 µM; in the experiment with UO-31 renal, 32.5 µM; in the experiment with PC-3 prostate, 50.6 µM; in the experiment with NCI-H522 lung, 14.2 µM. Also, the TGI in the experiment with MALME-3M melanoma is 27.8 µM; in the experiment with IGROV1 ovarian it was more than 100 µM; in the experiment on MDA-MB-231 breast, 37.5 µM; with HS 578T breast, more than 100 µM.
On to `CCSC1=CC(=O)c2nc3ccccc3c3ccnc1c23`, for which the TGI in the experiment on EKVX NSCLC was 7.59 µM; with HOP-92 NSCLC, 38.6 µM; with CAKI-1 renal, 9.12 µM; with UO-31 renal, 19 µM; in the experiment on PC-3 prostate it was more than 23.3 µM; in the experiment on NCI-H522 lung, 3.78 µM. The TGI came to 3.32 µM in the experiment on MALME-3M melanoma, 9.4 µM with IGROV1 ovarian, 31.8 µM with MDA-MB-231 breast and 14.7 µM in the experiment with HS 578T breast.
Turning to `C=C1C(=O)OC2/C=C(\CO)C(OC(C)=O)CC(O)/C(C)=C/C(OC(=O)C(C)CC)C12` (stereo not given), the TGI was 54.5 µM and 61.5 µM in the experiment with EKVX NSCLC; 35 µM and 63.2 µM in the experiment with HOP-92 NSCLC; 73.3 µM and 50.5 µM with CAKI-1 renal; more than 100 µM with UO-31 renal; more than 100 µM in the experiment with PC-3 prostate; 15.6 µM and 20.3 µM with NCI-H522 lung. Further, the TGI in the experiment on MALME-3M melanoma was 31.2 µM and 32 µM; in the experiment with IGROV1 ovarian, more than 100 µM; with MDA-MB-231 breast it was 32.7 µM; with HS 578T breast, more than 100 µM.
For `O=c1c2ncn(C3CC(O)C(CO)O3)c2nnn1Cc1ccccc1[N+](=O)[O-]` (stereo not given), the total growth inhibition concentration (TGI) in the experiment with EKVX NSCLC, in the experiment with HOP-92 NSCLC, in the experiment on CAKI-1 renal, in the experiment on UO-31 renal, in the experiment with PC-3 prostate and with NCI-H522 lung was more than 100 µM throughout. Also, the TGI in the experiment on MALME-3M melanoma, in the experiment with IGROV1 ovarian, in the experiment on MDA-MB-231 breast and in the experiment with HS 578T breast was more than 100 µM in each case.
`c1ccc2c(c1)[nH]c1nc3cc(-c4ccc5nc6c(nc5c4)[nH]c4ccccc46)ccc3nc12`: the TGI with EKVX NSCLC is more than 100 µM; in the experiment with HOP-92 NSCLC, more than 21.5 µM; with CAKI-1 renal, more than 100 µM; in the experiment on UO-31 renal it was more than 100 µM; with PC-3 prostate it was more than 100 µM; with NCI-H522 lung it was 78.4 µM. Moreover, the TGI is more than 100 µM in the experiment with MALME-3M melanoma, more than 100 µM in the experiment with IGROV1 ovarian, 97 µM with MDA-MB-231 breast and more than 100 µM in the experiment with HS 578T breast.
As for `CC(C)=C[C@@H]1C[C@H](n2cc(C)c(=O)[nH]c2=O)ON1CCO`, the TGI with EKVX NSCLC, in the experiment on HOP-92 NSCLC, in the experiment with CAKI-1 renal, with UO-31 renal, with PC-3 prostate and with NCI-H522 lung was more than 100 µM each time. In addition, the TGI in the experiment on MALME-3M melanoma, with IGROV1 ovarian, in the experiment on MDA-MB-231 breast and with HS 578T breast was more than 100 µM each time.
As to `Cc1ccc(S(=O)(=O)N2CCSCCSCCSCCSCC2)cc1`, the total growth inhibition concentration (TGI) was more than 89.9 µM in the experiment on EKVX NSCLC; 23.4 µM in the experiment with HOP-92 NSCLC; 66.4 µM with CAKI-1 renal; more than 81.3 µM in the experiment with UO-31 renal; more than 100 µM in the experiment on PC-3 prostate; more than 69.8 µM in the experiment with NCI-H522 lung. For the same compound, the TGI in the experiment on MALME-3M melanoma is more than 100 µM; in the experiment with IGROV1 ovarian it was more than 100 µM; with MDA-MB-231 breast, 56.6 µM; in the experiment with HS 578T breast it was more than 53.1 µM.
On to `CCOP(=O)(OCC)C1C(CO)OC(n2ccc(=O)[nH]c2=O)C1O` (stereo not given), for which the TGI in the experiment on EKVX NSCLC, with HOP-92 NSCLC, in the experiment on CAKI-1 renal, in the experiment on UO-31 renal, in the experiment with PC-3 prostate and with NCI-H522 lung was more than 100 µM in each case. Besides, the TGI in the experiment with MALME-3M melanoma, in the experiment with IGROV1 ovarian, in the experiment on MDA-MB-231 breast and with HS 578T breast was more than 100 µM throughout.
As for `Cc1ccccc1OC(C)C(=O)NN1C(=O)CC(=O)N(c2ccc(Cl)cc2)C1=S` (stereo not given), the concentration for total growth inhibition (TGI) in the experiment with EKVX NSCLC was more than 100 µM; in the experiment on HOP-92 NSCLC, 56.1 µM; with CAKI-1 renal, more than 100 µM; in the experiment on UO-31 renal it was more than 100 µM; with PC-3 prostate, more than 100 µM; in the experiment on NCI-H522 lung it was more than 100 µM. Moreover, the TGI in the experiment with MALME-3M melanoma, in the experiment with IGROV1 ovarian, in the experiment with MDA-MB-231 breast and with HS 578T breast was more than 100 µM each time.
`N#Cc1nc(-c2cc([N+](=O)[O-])cc([N+](=O)[O-])c2)oc1N`: the TGI with EKVX NSCLC, with HOP-92 NSCLC, in the experiment on CAKI-1 renal, in the experiment with UO-31 renal, with PC-3 prostate and with NCI-H522 lung was more than 10 µM each time. Moreover, the TGI in the experiment on MALME-3M melanoma, in the experiment with IGROV1 ovarian, with MDA-MB-231 breast and in the experiment on HS 578T breast was more than 10 µM in each case.
`CN(C)NC(=S)Nc1ccccc1Br`: the TGI in the experiment on EKVX NSCLC, in the experiment on HOP-92 NSCLC, with CAKI-1 renal, with UO-31 renal, with PC-3 prostate and in the experiment with NCI-H522 lung was more than 100 µM each time. Besides, the TGI in the experiment with MALME-3M melanoma, in the experiment with IGROV1 ovarian, with MDA-MB-231 breast and with HS 578T breast was more than 100 µM in each case.
In the case of `COC(=O)c1c(C)cccc1/C=C1/Cc2c(C)cccc2C1=O`, the TGI in the experiment with EKVX NSCLC, in the experiment on HOP-92 NSCLC, with CAKI-1 renal, in the experiment with UO-31 renal, in the experiment on PC-3 prostate and in the experiment on NCI-H522 lung was more than 100 µM throughout. Also, the total growth inhibition concentration (TGI) in the experiment with MALME-3M melanoma, with IGROV1 ovarian, with MDA-MB-231 breast and with HS 578T breast was more than 100 µM each time.
